According to ChEMBL document CHEMBL5727678, “CARM1 inhibitors and uses thereof” (2020):

Experiment: Enzyme Assay: The assays were all performed in a buffer consisting of 20 mM Bicine (pH=7.6), 1 mM TCEP, 0.005% BSG, and 0.002% Tween 20, prepared on the day of use. Compounds in 100% DMSO (1 ul) were spotted into a polypropylene 384-well V-bottom plates using a Platemate Plus outfitted with a 384-channel head . DMSO (1 ul) was added to Columns 11, 12, 23, 24, rows A-H for the maximum signal control and 1 ul of SAH, a known product and inhibitor of CARM1, was added to columns 11, 12, 23, 24, rows I-P for the minimum signal control. A cocktail (40 ul) containing the CARM1 enzyme was added by Multidrop Combi. The compounds were allowed to incubate with CARM1 for 30 min at room temperature, then a cocktail (10 ul) containing 3H-SAM and peptide was added to initiate the reaction (final volume=51 ul). The final concentrations of the components were as follows: CARM1 was 0.25 nM, 3H-SAM was 30 nM, peptide was 250 nM, SAH in the minimum signal control wells was 1 mM, and the DMSO concentration was 2%. The assays were stopped by the addition of non-radiolabeled SAM (10 ul) to a final concentration of 300 uM, which dilutes the 3H-SAM to a level where its incorporation into the peptide substrate is no longer detectable. 50 ul of the reaction in the 384-well polypropylene plate was then transferred to a 384-well Flashplate and the biotinylated peptides were allowed to bind to the streptavidin surface for at least 1 hour before being washed once with 0.1% Tween20 in a Biotek ELx405 plate washer.

| IC50 | SMILES |
| --- | --- |
| < 0.1 µM | CNC[C@@H](O)COc1ccc(Cl)c(-c2nc(-c3c(C)noc3C)c(C)c(N3Cc4c(C)nn(C)c4C3)n2)c1 |
| < 0.1 µM | CNCC(O)COc1cccc(-c2nc(-c3c(C)noc3C)cc(N3C[C@@H]4C[C@H]3CN4C(=O)OC)n2)c1 (stereo partly drawn) |
| < 0.1 µM | CNCC(O)COc1cccc(-c2nc(-c3c(C)noc3C)c(C)c(N3CCO[C@H](CNC)C3)n2)c1 (stereo partly drawn) |
